Results taken from patent US4843070A, “Substituted thiazetoquinoline-3-carboxylic acids and pharmaceutically acceptable salts thereof” (priority 1986, dated 1989).
In brackets after ≈: the same amount, converted by molar mass. Where two headings read alike, the source gives them in different places.

Experiments:
Assay type in all cases: cell-based
[1] = tested on: S. aureus 209-P JC; experiment: MIC by agar plate dilution method, S. aureus 209-P JC; conditions: Staphylococcus aureus, read-out: minimum inhibitory concentration (MIC)
Description: (§1) Test method: The MIC was measured by an agar plate dilution method in accordance with a standard method of Japan Chemotherapeutic Society (cf. Nippon Kagaku Ryoho Gakkaishi, 29(1), 76-79, 1981). Thus, the organisms incubated at 37° C. for 18 hours using sensitivity test broth (Nissei) was diluted to 10^6 CFU/ml using the same broth. […] As a control, enoxacin and ofloxacin were used in Tests 1 and 2, respectively.
(§2) The numbers of the inoculated bacteria were 10^6 in all cases and the unit of the MIC was micrograms/ml.

[2] = tested on: E. coli NIHJ JC-2; experiment: MIC by agar plate dilution method, E. coli NIHJ JC-2; conditions: Escherichia coli, read-out: minimum inhibitory concentration (MIC)
Description: as §1, §2

[3] = tested on: P. aeruginosa E-2; experiment: MIC by agar plate dilution method, P. aeruginosa E-2; conditions: Pseudomonas aeruginosa, read-out: minimum inhibitory concentration (MIC)
Description: as §1, §2

[4] = tested on: A. calcoaceticus 54; experiment: MIC by agar plate dilution method, A. calcoaceticus 54; conditions: read-out: minimum inhibitory concentration (MIC)
Description: as §1, §2

[5] = tested on: S. flexneri; experiment: MIC by agar plate dilution method, S. flexneri; conditions: Shigella flexneri, 18 hours, read-out: minimum inhibitory concentration (MIC)
Description: as §1, §2

[6] = tested on: K. pneumoniae K-1966; experiment: MIC by agar plate dilution method, K. pneumoniae K-1966; conditions: Klebsiella pneumoniae, read-out: minimum inhibitory concentration (MIC)
Description: as §1, §2

[7] = tested on: S. marcescens IFO 3736; experiment: MIC by agar plate dilution method, S. marcescens IFO 3736; conditions: Serratia marcescens, read-out: minimum inhibitory concentration (MIC)
Description: as §1, §2

[8] = tested on: S. aureus Smith; experiment: MIC by agar plate dilution method, S. aureus Smith; conditions: Staphylococcus aureus, read-out: minimum inhibitory concentration (MIC)
Description: as §1, §2

[9] = tested on: P. vulgaris HX-19; experiment: MIC by agar plate dilution method, P. vulgaris HX-19; conditions: Proteus vulgaris, HX19, Test 1, inoculum 10^6, 37° C., 18 hours, read-out: minimum inhibitory concentration (MIC)
Description: as §1, §2

[10] = tested on: B. subtilis ATCC 6633; experiment: MIC by agar plate dilution method, B. subtilis ATCC 6633; conditions: Bacillus subtilis, read-out: minimum inhibitory concentration (MIC)
Description: as §1, §2

[11] = tested on: E. coli KC-14; experiment: MIC by agar plate dilution method, E. coli KC-14; conditions: Escherichia coli, read-out: minimum inhibitory concentration (MIC)
Description: as §1, §2

[12] = tested on: E. cloacae No. 1; experiment: MIC by agar plate dilution method, E. cloacae No. 1; conditions: Enterobacter cloacae, read-out: minimum inhibitory concentration (MIC)
Description: as §1, §2

[13] = tested on: M. luteus ATCC 9341; experiment: MIC by agar plate dilution method, M. luteus ATCC 9341; conditions: Micrococcus luteus, read-out: minimum inhibitory concentration (MIC)
Description: as §1, §2

[14] = tested on: Proteus mirabilis 181; experiment: MIC by agar plate dilution method, Proteus mirabilis 181; conditions: Test 2; Proteus mirabilis 181; inoculum 10^6; 37° C., 18 hours; read-out: minimum inhibitory concentration (MIC)
Description: as §1, §2

[15] = tested on: S. epidermidis; experiment: MIC by agar plate dilution method, S. epidermidis; conditions: Staphylococcus epidermidis, Test 2, inoculum 10^6, 37° C., 18 hours, read-out: minimum inhibitory concentration (MIC)
Description: as §1, §2

[16] = Test 1, S. aureus 209-P JC, inoculum 10^6, 37° C., 18 hours
[17] = NIHJJC2, Test 1, E. coli NIHJ JC-2, inoculum 10^6, 37° C., 18 hours
[18] = E2, Test 1, P. aeruginosa E-2, inoculum 10^6, 37° C., 18 hours
[19] = Acinetobacter calcoaceticus, Test 1, A. calcoaceticus 54, inoculum 10^6, 37° C., 18 hours
[20] = K1966, Test 1, K. pneumoniae K-1966, inoculum 10^6, 37° C., 18 hours
[21] = IFO3736, Test 1, S. marcescens IFO 3736, inoculum 10^6, 37° C., 18 hours
[22] = Test 1, S. aureus Smith, inoculum 10^6, 37° C., 18 hours
[23] = ATCC6633, Test 1, B. subtilis ATCC 6633, inoculum 10^6, 37° C., 18 hours
[24] = KC14, Test 1, E. coli KC-14, inoculum 10^6, 37° C., 18 hours
[25] = Test 1, E. cloacae No. 1, inoculum 10^6, 37° C., 18 hours
[26] = ATCC9341, Test 1, M. luteus ATCC 9341, inoculum 10^6, 37° C., 18 hours

## CC1Sc2c(C(=O)O)c(=O)c3cc(F)c(N4CCSCC4)cc3n21 (stereo not drawn) [(6)]
[1]; [16]
  MIC: 0.05 µg/mL (≈ 0.136 µM)
[2]; [17]
  MIC: 0.2 µg/mL (≈ 0.546 µM)
[3]; [18]
  MIC: 0.78 µg/mL (≈ 2.13 µM)
[4]; [19]
  MIC: 0.2 µg/mL (≈ 0.546 µM)
[5]; Test 1, inoculum 10^6, 37° C.
  MIC: 0.1 µg/mL (≈ 0.273 µM)
[6]; [20]
  MIC: 0.1 µg/mL (≈ 0.273 µM)
[7]; [21]
  MIC: 0.78 µg/mL (≈ 2.13 µM)
[8]; [22]
  MIC: ≤ 0.0063 µg/mL
[9]
  MIC: ≤ 0.0063 µg/mL
[10]; [23]
  MIC: ≤ 0.0063 µg/mL
[11]; [24]
  MIC: 0.05 µg/mL (≈ 0.136 µM)
[12]; [25]
  MIC: 0.39 µg/mL (≈ 1.06 µM)
[13]; [26]
  MIC: 1.56 µg/mL (≈ 4.26 µM)

## CC1Sc2c(C(=O)O)c(=O)c3cc(Cl)c(N4CCNCC4)cc3n21 (stereo not drawn) [(7)]
[1]; [16]
  MIC: 0.1 µg/mL (≈ 0.273 µM)
[2]; [17]
  MIC: 0.05 µg/mL (≈ 0.137 µM)
[3]; [18]
  MIC: 1.56 µg/mL (≈ 4.26 µM)
[4]; [19]
  MIC: 3.13 µg/mL (≈ 8.56 µM)
[5]; Test 1, inoculum 10^6, 37° C.
  MIC: 0.0125 µg/mL (≈ 0.0342 µM)
[6]; [20]
  MIC: 0.025 µg/mL (≈ 0.0683 µM)
[7]; [21]
  MIC: 0.1 µg/mL (≈ 0.273 µM)
[8]; [22]
  MIC: 0.2 µg/mL (≈ 0.547 µM)
[9]
  MIC: 0.025 µg/mL (≈ 0.0683 µM)
[10]; [23]
  MIC: 0.2 µg/mL (≈ 0.547 µM)
[11]; [24]
  MIC: 0.025 µg/mL (≈ 0.0683 µM)
[12]; [25]
  MIC: 0.05 µg/mL (≈ 0.137 µM)
[13]; [26]
  MIC: 1.56 µg/mL (≈ 4.26 µM)

## CC1Sc2c(C(=O)O)c(=O)c3cc(F)c(N4CCC(N)C4)cc3n21.CCS(=O)(=O)O (stereo not drawn) [Table 1 (8), 6-Fluoro-1-methyl-7-(3-amino-1-pyrrolidinyl)-4-oxo-4H-(1,3)thiazeto(3,2-a)quinoline-3-carboxylic acid ethanesulfonate]
[1]; 209P, 18 h
  MIC: 0.025 µg/mL
[2]; NIHJJC2, 18 h
  MIC: 0.05 µg/mL
[3]; E2, 18 h
  MIC: 0.1 µg/mL
[4]; Acinetobacter calcoaceticus, 54, 18 h
  MIC: 0.78 µg/mL
[5]; Test 1, inoculum 10^6, 37° C.
  MIC: ≤ 0.0063 µg/mL
[6]; K1966, 18 h
  MIC: 0.025 µg/mL
[7]; IFO3736, 18 h
  MIC: 0.1 µg/mL
[8]; 18 h
  MIC: 0.05 µg/mL
[9]
  MIC: ≤ 0.0063 µg/mL
[10]; ATCC6633, 18 h
  MIC: 0.05 µg/mL
[11]; KC14, 18 h
  MIC: ≤ 0.0063 µg/mL
[12]; NO.1, 18 h
  MIC: 0.025 µg/mL
[13]; ATCC9341, 18 h
  MIC: 0.2 µg/mL

## CC1Sc2c(C(=O)O)c(=O)c3cc(F)c(N4CCN(C)CC4)c(N)c3n21 (stereo not drawn) [Table 1 (9), 8-Amino-6-fluoro-1-methyl-7-(4-methyl-1-piperazinyl)-4-oxo-4H-(1,3)thiazeto(3,2-a)quinoline-3-carboxylic acid]
[1]; [16]
  MIC: 0.39 µg/mL (≈ 1.03 µM)
[2]; [17]
  MIC: 0.1 µg/mL (≈ 0.264 µM)
[3]; [18]
  MIC: 1.56 µg/mL (≈ 4.12 µM)
[4]; [19]
  MIC: 0.78 µg/mL (≈ 2.06 µM)
[5]; Test 1, inoculum 10^6, 37° C.
  MIC: 0.05 µg/mL (≈ 0.132 µM)
[6]; [20]
  MIC: 0.1 µg/mL (≈ 0.264 µM)
[7]; [21]
  MIC: 0.39 µg/mL (≈ 1.03 µM)
[8]; [22]
  MIC: 0.2 µg/mL (≈ 0.529 µM)
[9]
  MIC: 0.025 µg/mL (≈ 0.0661 µM)
[10]; [23]
  MIC: 0.2 µg/mL (≈ 0.529 µM)
[11]; [24]
  MIC: 0.05 µg/mL (≈ 0.132 µM)
[12]; [25]
  MIC: 0.2 µg/mL (≈ 0.529 µM)
[13]; [26]
  MIC: 50 µg/mL (≈ 132 µM)

## CC1Sc2c(C(=O)O)c(=O)c3cc(F)c(N4CCN(Cc5ccc(N)cc5)CC4)cc3n21 (stereo not drawn) [Table 1 (10), 7-(4-(4-Aminobenzyl)-1-piperazinyl)-6-fluoro-1-methyl-4-oxo-4H-(1,3)thiazeto(3,2-a)quinoline-3-carboxylic acid]
[1]; [16]
  MIC: 0.05 µg/mL (≈ 0.11 µM)
[2]; [17]
  MIC: 0.2 µg/mL (≈ 0.44 µM)
[3]; [18]
  MIC: 3.13 µg/mL (≈ 6.89 µM)
[4]; [19]
  MIC: 0.39 µg/mL (≈ 0.858 µM)
[5]; Test 1, inoculum 10^6, 37° C.
  MIC: 0.1 µg/mL (≈ 0.22 µM)
[6]; [20]
  MIC: 0.2 µg/mL (≈ 0.44 µM)
[7]; [21]
  MIC: 0.56 µg/mL (≈ 1.23 µM)
[8]; [22]
  MIC: ≤ 0.0063 µg/mL
[9]
  MIC: 0.1 µg/mL (≈ 0.22 µM)
[10]; [23]
  MIC: ≤ 0.0063 µg/mL
[11]; [24]
  MIC: 0.05 µg/mL (≈ 0.11 µM)
[12]; [25]
  MIC: 0.39 µg/mL (≈ 0.858 µM)
[13]; [26]
  MIC: 0.39 µg/mL (≈ 0.858 µM)

## O=C(O)c1c2n(c3cc(N4CCNCC4)c(F)cc3c1=O)C(c1ccccc1)S2 (stereo not drawn) [Table 1 (11), 6-Fluoro-4-oxo-1-phenyl-7-(1-piperazinyl)-4H-(1,3)thiazeto(3,2-a)quinoline-3-carboxylic acid]
[1]; Test 2, S. aureus 209-P JC, inoculum 10^6, 37° C., 18 hours
  MIC: 0.2 µg/mL (≈ 0.486 µM)
[2]; NIHJJC2, Test 2, E. coli NIHJ JC-2, inoculum 10^6, 37° C., 18 hours
  MIC: 0.025 µg/mL (≈ 0.0608 µM)
[3]; E2, Test 2, P. aeruginosa E-2, inoculum 10^6, 37° C., 18 hours
  MIC: 0.2 µg/mL (≈ 0.486 µM)
[14]
  MIC: 0.05 µg/mL (≈ 0.122 µM)
[5]; Test 2, inoculum 10^6, 37° C.
  MIC: 0.025 µg/mL (≈ 0.0608 µM)
[6]; K1966, Test 2, K. pneumoniae K-1966, inoculum 10^6, 37° C., 18 hours
  MIC: 0.025 µg/mL (≈ 0.0608 µM)
[7]; IFO3736, Test 2, S. Marcescens IFO 3736, inoculum 10^6, 37° C., 18 hours
  MIC: 0.05 µg/mL (≈ 0.122 µM)
[10]; ATCC6633, Test 2, B. subtilis ATCC 6633, inoculum 10^6, 37° C., 18 hours
  MIC: 0.05 µg/mL (≈ 0.122 µM)
[15]
  MIC: 1.56 µg/mL (≈ 3.79 µM)
[13]; ATCC9341, Test 2, M. luteus ATTC 9341, inoculum 10^6, 37° C., 18 hours
  MIC: 3.13 µg/mL (≈ 7.61 µM)
